This passage reports Ki, Emax and EC50 results from patent US20230265151A1, “GIP/GLP1 CO-AGONIST COMPOUNDS” (priority 2020, published 2023).

Assay [1] has as its target T1, human GIP receptor (hGIPR) (Homo sapiens, UniProt P48546).
T1 construct: expressed in transfected cells; crude membranes
T1 sequence (P48546 22-466): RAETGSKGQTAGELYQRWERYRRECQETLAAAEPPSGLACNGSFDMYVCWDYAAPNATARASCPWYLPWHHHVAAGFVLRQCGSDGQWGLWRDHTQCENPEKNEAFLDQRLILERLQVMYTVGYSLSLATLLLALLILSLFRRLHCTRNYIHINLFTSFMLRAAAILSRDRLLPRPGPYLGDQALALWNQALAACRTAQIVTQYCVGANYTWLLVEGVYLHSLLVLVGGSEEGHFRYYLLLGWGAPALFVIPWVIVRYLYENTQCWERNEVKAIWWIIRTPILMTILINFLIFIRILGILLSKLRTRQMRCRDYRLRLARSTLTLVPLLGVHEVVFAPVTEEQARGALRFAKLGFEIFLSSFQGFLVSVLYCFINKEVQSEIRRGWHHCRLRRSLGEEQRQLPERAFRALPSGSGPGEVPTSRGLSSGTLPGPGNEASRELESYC
Description: [125I]-GIP binding, SPA with membranes of CHO cells expressing hGIPR.

Assay [2] concerns the target T2, hGIPR (Homo sapiens, UniProt P48546).
T2 construct: expressed in transfected cells
T2 sequence (P48546 22-466): T1 sequence (P48546 22-466)
Kind of assay: Functional cAMP formation (HTRF) in HEK-293 clonal cells expressing hGIPR, 0.1% bovine casein, without or with 1.0% human serum albumin. The format is cell-based. The procedure, abridged: (§1)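 Readings of the HTRF 665/620 nm ratio, which falls as cAMP rises, were converted to nM cAMP using a standard curve after 30 min peptide exposure at 37° C.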
Background: Changes in cAMP serve as a functional read-out for many G protein-coupled receptors.

Assay [3] has as its target T3, hGCGR (Homo sapiens, UniProt P47871).
T3 construct: expressed in transfected cells
Description: Functional cAMP formation (HTRF) in HEK-293 clonal cells expressing hGCGR, 0.1% bovine casein, without or with 1.0% human serum albumin. The format is cell-based. The following applies: hGCGR EC50, nM (SEM, n), cAMP, 37° C. The method, boiled down: as §1

Assay [4] concerns the target hGLP-1R (Homo sapiens, UniProt P43220). Description: Functional cAMP formation (HTRF) in HEK-293 clonal cells expressing hGLP-1R, 0.1% bovine casein, without or with 1.0% human serum albumin. The format is cell-based. Also on record: expressed in transfected cells. The procedure, abridged:
as §1

hGLP-1R, sequence (P43220 24-463): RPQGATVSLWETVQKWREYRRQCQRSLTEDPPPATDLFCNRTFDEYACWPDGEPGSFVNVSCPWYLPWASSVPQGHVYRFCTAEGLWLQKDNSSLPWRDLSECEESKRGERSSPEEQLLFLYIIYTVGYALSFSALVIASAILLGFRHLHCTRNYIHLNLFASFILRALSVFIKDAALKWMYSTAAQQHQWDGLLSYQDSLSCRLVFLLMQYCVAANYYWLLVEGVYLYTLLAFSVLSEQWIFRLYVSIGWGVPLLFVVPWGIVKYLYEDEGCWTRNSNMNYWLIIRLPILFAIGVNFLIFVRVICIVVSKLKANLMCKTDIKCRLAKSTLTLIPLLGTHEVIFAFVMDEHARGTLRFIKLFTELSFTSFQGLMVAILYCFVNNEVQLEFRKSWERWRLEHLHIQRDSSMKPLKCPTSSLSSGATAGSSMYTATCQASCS
T3 sequence (P47871 26-477): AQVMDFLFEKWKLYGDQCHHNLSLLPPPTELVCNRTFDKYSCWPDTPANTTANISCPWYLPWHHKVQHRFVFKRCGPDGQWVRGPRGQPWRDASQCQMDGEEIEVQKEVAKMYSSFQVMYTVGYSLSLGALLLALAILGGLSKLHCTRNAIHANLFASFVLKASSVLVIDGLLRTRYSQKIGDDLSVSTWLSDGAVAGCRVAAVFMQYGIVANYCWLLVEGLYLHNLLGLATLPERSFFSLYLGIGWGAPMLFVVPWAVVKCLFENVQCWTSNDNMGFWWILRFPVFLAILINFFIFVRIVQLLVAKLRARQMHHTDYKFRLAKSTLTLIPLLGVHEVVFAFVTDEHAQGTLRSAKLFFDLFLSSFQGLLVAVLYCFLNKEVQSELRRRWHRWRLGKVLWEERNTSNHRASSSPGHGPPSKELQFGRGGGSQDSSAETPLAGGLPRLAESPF

The Ki is a dissociation constant, usually derived from enzyme kinetics or from competition with a known ligand. In general, Emax refers to the maximal effect, on the per cent scale that the assay sets. Usually EC50 stands for the midpoint of the concentration-response curve. Lower therefore signals higher potency in that assay. As to `CC[C@H](C)[C@H](NC(=O)[C@H](CC(C)C)NC(=O)[C@](C)(Cc1ccc(O)cc1)NC(=O)[C@H](CCCCNC(=O)COCCOCCNC(=O)COCCOCCNC(=O)COCCOCCNC(=O)CC[C@H](NC(=O)CCCCCCCCCOc1ccc(C(=O)O)cc1)C(=O)O)NC(=O)[C@@H](NC(=O)[C@H](Cc1ccccc1)NC(=O)[C@H](CCC(=O)O)NC(=O)C(C)(C)NC(=O)[C@H](CCC(N)=O)NC(=O)[C@H](C)NC(=O)[C@H](CCC(N)=O)NC(=O)[C@H](CCCN)NC(=O)[C@H](CC(=O)O)NC(=O)[C@H](CC(C)C)NC(=O)[C@](C)(CC(C)C)NC(=O)[C@@H](NC(=O)C(C)(C)NC(=O)[C@H](Cc1ccncc1)NC(=O)[C@H](CC(=O)O)NC(=O)[C@H](CO)NC(=O)[C@@H](NC(=O)[C@](C)(Cc1ccccc1F)NC(=O)[C@@H](NC(=O)CNC(=O)[C@H](CCC(=O)O)NC(=O)C(C)(C)NC(=O)[C@@H](N)Cc1ccc(O)cc1)[C@@H](C)O)[C@@H](C)O)[C@@H](C)CC)[C@@H](C)CC)C(=O)N[C@@H](CCCCNC(=O)COCCOCCNC(=O)COCCOCCNC(=O)COCCOCCNC(=O)CC[C@H](NC(=O)CCCCCCCCCOc1ccc(C(=O)O)cc1)C(=O)O)C(=O)NCC(=O)NCC(=O)N1CCC[C@H]1C(=O)N[C@@H](CO)C(=O)N[C@@H](CO)C(=O)NCC(=O)N[C@@H](C)C(=O)N1CCC[C@H]1C(=O)N1CCC[C@H]1C(=O)N1CCC[C@H]1C(=O)N[C@@H](CO)C(N)=O` [Example 464], in assay [1], the Ki was determined as 0.0261 nM. For the same compound, the Emax amounted to 95.5% in assay [2] (HEK293, read-out: hGIPR Emax, % ± SEM, cAMP, 37° C., 0.1% bovine casein and 1.0% human serum albumin, percent of maximal response to GIP(1-42)NH2); 114% in assay [4] (HEK293, read-out: hGLP-1R Emax, % ± SEM, cAMP, 37° C., 0.1% bovine casein, percent of maximal response to GLP-1(7-36)NH2, arithmetic mean). In addition, the EC50 in assay [2] (hGIPR EC50, nM (SEM, n), cAMP, 37° C., 0.1% bovine casein (no human serum albumin), geometric mean) was 0.00955 nM; in assay [3] (0.1% bovine casein (no human serum albumin), geometric mean), more than 10100 nM; in assay [3] (0.1% bovine casein and 1.0% human serum albumin, geometric mean (SEM, n)), more than 10100 nM; in assay [4] (hGLP-1R EC50, nM (SEM, n), cAMP, 37° C., 0.1% bovine casein (no human serum albumin), geometric mean), 0.161 nM.
